Patent publication US8481597B2, “Use of (-) (3-trihalomethylphenoxy) (4-halophenyl) acetic acid derivatives for treatment of insulin resistance, type 2 diabetes, hyperlipidemia and hyperuricemia” (Metabolex, Inc., priority 1999, dated 2013)
“And” between values parts separate entries of the source, which are not always exact repeats. Identical values can stand only once. “Also recorded” adds a separate entry of the source.

Legend:
C57BL/6J ob/ob mice [1] = assay: Glucose and insulin lowering on daily oral administration in diabetic ob/ob mice (Example 9); type: in vivo
Description: The gavage volume was 10 ml/kg.

ZDF rats = assay: Plasma glucose in ZDF rats, (−) halofenate vs (+) halofenate (Example 13); type: in vivo; details: 50 mg/kg oral once a day for 3 days
Description: Male 8-9 week old ZDF rats were purchased from Genetic Models, Inc. (Indianapolis, Ind.). […] Rats that had 4-hour fasting plasma glucose levels between 200 and 500 mg/dL were used. […] The gavage volume was 5 ml/kg. Blood samples were taken at 5 hours post dose on day 2 and 3.

Zucker fa/fa rats [2] = assay: Short insulin tolerance test in Zucker fatty rats (Example 10); type: in vivo; details: 50 mg/kg/day oral for 5 days
Description: (§1) Prior to treatment, rats were assigned to 6 groups based on body weight. Each treatment group consisted of 8 rats. […] The gavage volume was 10 ml/kg. All rats received an oral glucose challenge (1.9 g/kg) 5.5 hours after the treatment and 4 hours after withdrawal of the food. Blood samples were taken at 0, 15, 30, 60, 90, 120, and 180 minutes following the glucose challenge for plasma glucose measurement. […] On day 5, rats received the intravenous insulin (0.75 U/kg) 5.5 hours after the last dose and 4 hours after withdrawal of the food. Blood samples were taken at 3, 6, 9, 12, 15 and 18 minutes following the insulin injection for plasma glucose measurement.

[3] = test system: Zucker diabetic fatty (ZDF) rats; assay: Lipid lowering in Zucker Diabetic Fatty rats (Example 11); type: in vivo; details: for plasma cholesterol, in words: Experiment I, 13 days, racemate 50 mg/kg/day, enantiomers 25 mg/kg/day; for plasma cholesterol lowering, in words / plasma triglyceride, in words: 37.5 mg/kg/day (High dose), 37.5 mg/kg/day
Description: Male Zucker diabetic fatty (ZDF) rats were obtained from GMI Laboratories (Indianapolis, Ind.) at 9 weeks of age. Vehicle or enantiomers of halofenate administered by oral gavage on a daily basis starting at 74 days of age. Initial blood samples were obtained for analysis one day before treatment and at the indicated times in the treatment protocol. Blood was analyzed for plasma triglyceride and cholesterol by standard techniques.

[4] = test system: oxonic acid induced hyperuricemic rats; assay: Plasma uric acid in oxonic acid induced hyperuricemic rats (Example 17); type: in vivo, SD rats; details: oral 50 mg/kg for 3 days, 100 mg/kg on the 4th day; blood 6 hours post gavage on day 4
Description: Male SD rats, weight 275-300 g were purchased from Charles River. […] To establish a hyperuricemic state, animals were put on a diet containing 2.5% (w/w) of oxonic acid (Sigma Chemical Co, St. Louis, Mo., USA) throughout the experiment. Oxonic acid elevates plasma uric acid by inhibiting uricase. Rats were screened for plasma uric acid levels 3 days after they were placed on the diet, and those that had extreme plasma uric acid levels were excluded. Rats were assigned to one of three groups and the mean uric acid levels were equivalent in each group. […] Oxonic acid was delivered in a liquid formulation containing 0.9% (w/v) methylcellulose. The gavage and injection volumes were 5 ml/kg. Blood samples were taken at 6 hours post oral gavage on day 4. Plasma uric acid levels were determined colorimetrically using the Infinity Uric Acid Reagent (Sigma Chemical Co, St. Louis, Mo., USA).

C57BL/6J ob/ob mice [5] = assay: Time course of glucose-lowering after a single oral dose in diabetic ob/ob mice (Example 8); type: in vivo; details: single oral dose 250 mg/kg; for time course of glucose-lowering, in words: 250 mg/kg
Zucker fa/fa rats [6] = assay: Oral glucose challenge in Zucker fatty rats (Example 10); type: in vivo
Description: as §1

C57BL/6J db/db mice = assay: Prevention of diabetes and alleviation of hypertriglyceridemia in db/db mice (Example 15); type: in vivo; details: 150 mg/kg/day in chow for 9 weeks
Description: Blood samples were taken at 8-10 AM once a week for 9 weeks under non-fasting condition. Food intake and body weight were measured every 1-3 days. Plasma glucose and triglyceride concentrations were determined colorimetrically using kits from Sigma Chemical Co (No. 315 and No. 339, St. Louis, Mo., USA). Plasma insulin levels were measured using RIA assay kit purchased from Linco Research (St. Charles, Mo.).

cyclooxygenase 1 (COX-1) = biological target: T1, cyclooxygenase 1 (COX-1) (Homo sapiens, UniProt P23219); assay: COX-1 inhibition in human whole blood assay, TXB2 production (Example 19); type: cell-based
T1 construct: was conducted using fresh human blood from healthy donors; endogenous in cells; host or cells: heparinized fresh human whole blood, stimulated with calcium ionophore A23187
T1 sequence (P23219 24-599): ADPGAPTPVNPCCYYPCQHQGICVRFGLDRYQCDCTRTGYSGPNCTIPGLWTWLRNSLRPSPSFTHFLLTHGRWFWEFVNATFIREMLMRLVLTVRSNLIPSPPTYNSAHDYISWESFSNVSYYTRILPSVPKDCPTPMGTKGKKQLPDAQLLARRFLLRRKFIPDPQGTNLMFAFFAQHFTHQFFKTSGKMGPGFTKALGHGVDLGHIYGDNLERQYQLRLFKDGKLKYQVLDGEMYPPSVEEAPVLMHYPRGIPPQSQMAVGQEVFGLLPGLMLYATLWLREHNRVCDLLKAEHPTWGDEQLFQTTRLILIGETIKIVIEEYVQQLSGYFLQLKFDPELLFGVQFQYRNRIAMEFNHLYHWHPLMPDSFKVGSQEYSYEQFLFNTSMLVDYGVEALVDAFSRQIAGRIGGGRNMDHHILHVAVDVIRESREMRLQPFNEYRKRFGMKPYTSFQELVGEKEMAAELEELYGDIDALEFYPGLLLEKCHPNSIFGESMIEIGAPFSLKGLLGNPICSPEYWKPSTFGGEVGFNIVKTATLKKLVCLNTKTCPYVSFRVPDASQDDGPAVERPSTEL
Description: An assay for cyclooxygenase 1 (COX-1) inhibition by the compounds of the present invention was conducted using fresh human blood from healthy donors. […] The enzyme was activated by the commercially available calcium ionophore A23187.
This bioassay is based on the production of thromboxane B2 (TXB2) after COX-1 activation. When activated, COX-1 generates prostaglandin H2 which is then converted to thromboxane A2 (TXA2) by thromboxane synthase and then finally to thromboxane B2 by non-enzymatic […]. In addition, PGE2 levels were measured to exclude inhibition of thromboxane synthase. This assay allows discrimination between COX-1 and thromboxane synthase inhibition.
TXB2 and PGE2 were measured by commercially available immunoassay kits purchased from Assay Designs, Inc. (Ann Arbor, Mich.). All other chemicals were from Sigma except as noted. […] Immediately before use, all compounds were diluted 1:10 in RPMI-1640 medium (Gibco BRL, 11875-093) to make a 10× concentrated stock solution. The 10×RPMI-1640 stock solutions of the calcium ionophore were prepared in an identical manner. […] COX-1 was then activated by adding 25 microliters of the 10× stock solution of 25 micromolar calcium ionophore. The plates were shaken for 10 minutes at room temperature and then incubated at 37° C. for an additional 30 minutes. After these incubation times, the plates were centrifuged at 2,000 g for 5 minutes. Two microliters of plasma were taken from each reaction for the measurement of TXB2 using an enzyme immunoassay kit from Assay Designs, Inc. The PGE2 level in the same reaction was measured using a PGE2 enzyme immunoassay kit from Assay Designs, Inc.
The results of the assay are presented as the percent inhibition of COX-1 activity.

[7] = daily oral, racemate 250 mg/kg/day, enantiomers 125 and 250 mg/kg/day
[8] = Experiment II, listed as (−) enantiomer

SMILES: CC(=O)NCCOC(=O)C(Oc1cccc(C(F)(F)F)c1)c1ccc(Cl)cc1 (single isomer, unassigned; (-)) [(−) halofenate, (−) 2-acetamidoethyl 4-chlorophenyl-(3-trifluoromethylphenoxy)acetate]
- overnight fasting plasma insulin after 5 days treatment, in words (C57BL/6J ob/ob mice [1]; 125 mg/kg/day oral, ob/ob mice): Significantly lower plasma insulins
- time points after first dose with significantly reduced plasma insulin (C57BL/6J ob/ob mice [1]; 125 mg/kg/day oral, ob/ob mice): 27 h
- overnight fasting plasma insulin after 5 days treatment, in words (C57BL/6J ob/ob mice [1]; 250 mg/kg/day oral, ob/ob mice): Significantly lower plasma insulins
- time points after first dose with significantly reduced plasma glucose (C57BL/6J ob/ob mice [1]; 250 mg/kg/day oral, ob/ob mice): 3 h
- time points after first dose with significantly reduced plasma insulin (C57BL/6J ob/ob mice [1]; 250 mg/kg/day oral, ob/ob mice): 27 h and 30 h
- plasma glucose following an overnight fast after 5 days treatment (C57BL/6J ob/ob mice [1]; 250 mg/kg/day oral, ob/ob mice, control 185.4±12.3): 127.3 ± 8.0 mg/dL
- plasma glucose relative to control animals, in words (C57BL/6J ob/ob mice [1]; [7]): Significant decreases in glucose levels
- plasma insulin relative to vehicle control, in words (C57BL/6J ob/ob mice [1]; [7]): insulins were lower
- plasma glucose concentrations compared to vehicle-treated animals, in words (ZDF rats): significantly reduced plasma glucose concentrations
- insulin sensitivity (slope of decline in glucose after i.v. insulin), in words (Zucker fa/fa rats [2]): improved significantly; also recorded: significantly more insulin sensitive
- plasma cholesterol, in words [3]: significant decrease in plasma cholesterol
- plasma cholesterol, in words ([3]; listed as (−) enantiomer): plasma cholesterol declined with treatment; also recorded: most active of the species tested
- days of treatment with significantly lower plasma cholesterol vs control ([3]; Experiment II, 12.5 mg/kg/day (Low dose)): 7 days
- plasma cholesterol lowering, in words ([3]; Experiment II): much greater decline in plasma cholesterol
- plasma triglyceride, in words ([3]; Experiment II, listed as (−) enantiomer of halofenate): greater magnitude
- plasma cholesterol lowering, in words [3, 8]: greatest extent of cholesterol lowering
- plasma triglyceride, in words [3, 8]: lowest triglyceride levels of all the treatment groups; also recorded: significant lowering of plasma triglyceride
- plasma uric acid levels, in words [4]: significantly reduced plasma uric acid levels
- earliest time of plasma glucose reduction / significant activity (C57BL/6J ob/ob mice [5]): 1.5 h
- time of peak glucose-lowering activity (C57BL/6J ob/ob mice [5]): 3 h
- time course of glucose-lowering, in words (C57BL/6J ob/ob mice [5]): more rapid onset and sustained longer
- time course of glucose-lowering, in words (C57BL/6J ob/ob mice [5]; listed as (−) enantiomer): most rapid onset of action and the longest duration of action; also recorded: more effective and significantly different (p<0.05) from the (+) enantiomer at both the 3 hour and 24 hour time points
- plasma glucose at 24 hours (C57BL/6J ob/ob mice [5]; vehicle 408±16.2): 217 ± 16.4 mg/dL
- incremental glucose area under the curve (AUC) relative to vehicle control, in words (Zucker fa/fa rats [6]; racemate 100 mg/kg, enantiomers 50 and 100 mg/kg): significant reductions in the glucose area; also recorded: Significant changes (p<0.05)
- plasma glucose after oral glucose challenge, in words (Zucker fa/fa rats [6]; single oral dose 100 mg/kg 5.5 hours before challenge): greatest degree of glucose-lowering of all the treated animals
- plasma glucose after oral glucose challenge, in words (Zucker fa/fa rats [6]; single oral dose 5.5 hours before challenge, racemate 100 mg/kg, enantiomers 50 and 100 mg/kg): most effective in lowering the glucose; also recorded: lower glucose levels that persisted at 90-120 minutes
- increase of plasma glucose levels with age, in words (C57BL/6J db/db mice): prevented or significantly delayed
- plasma insulin concentration, in words (C57BL/6J db/db mice): maintained the plasma insulin concentration
- plasma triglyceride concentration, in words (C57BL/6J db/db mice): alleviated the increase of plasma triglyceride concentration; also recorded: alleviated hyperlipidemia
- IC50 (cyclooxygenase 1 (COX-1); heparinized fresh human blood, calcium ionophore A23187, TXB2 readout, read-out: IC50, inhibition of the COX-1 enzyme in blood): > 3 mM
- inhibition of COX-1, in words (cyclooxygenase 1 (COX-1); human whole blood assay): substantially weaker and ineffective inhibitor of the COX-1 enzyme; also recorded: much less effective than the racemate in inhibiting COX-1
